Laboratory results as given in patent US20220144841A1, “TRISUBSTITUTED PYRAZOLO [1,5-A] PYRIMIDINE COMPOUNDS AS CDK7 INHIBITORS” (THE TRANSLATIONAL GENOMICS RESEARCH INSTITUTE, priority 2019, published 2022).
Where a name gives a salt, the structure may show the parent alone.

biological target: T1, CDK7/CycH/MAT1 (Homo sapiens, UniProt P50613); assay: Kinase ADP-Glo Assay; assay type: biochemical; settings: ADP-Glo assay (compounds without *), ATP 1 μM, 60 minutes at room temperature
T1 construct: purchased ProQinase 0366-0360-4
T1 sequence (P50613 whole entry): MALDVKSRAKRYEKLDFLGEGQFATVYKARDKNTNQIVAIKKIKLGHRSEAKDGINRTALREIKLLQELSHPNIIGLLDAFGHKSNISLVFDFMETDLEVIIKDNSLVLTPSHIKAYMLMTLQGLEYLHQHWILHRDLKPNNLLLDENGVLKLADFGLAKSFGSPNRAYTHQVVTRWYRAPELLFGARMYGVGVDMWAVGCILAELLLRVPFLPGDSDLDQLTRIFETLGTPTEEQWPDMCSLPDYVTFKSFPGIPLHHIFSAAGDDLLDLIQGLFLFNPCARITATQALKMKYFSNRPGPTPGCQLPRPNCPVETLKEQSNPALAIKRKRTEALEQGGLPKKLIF
T1 sequence (P51946 whole entry partner): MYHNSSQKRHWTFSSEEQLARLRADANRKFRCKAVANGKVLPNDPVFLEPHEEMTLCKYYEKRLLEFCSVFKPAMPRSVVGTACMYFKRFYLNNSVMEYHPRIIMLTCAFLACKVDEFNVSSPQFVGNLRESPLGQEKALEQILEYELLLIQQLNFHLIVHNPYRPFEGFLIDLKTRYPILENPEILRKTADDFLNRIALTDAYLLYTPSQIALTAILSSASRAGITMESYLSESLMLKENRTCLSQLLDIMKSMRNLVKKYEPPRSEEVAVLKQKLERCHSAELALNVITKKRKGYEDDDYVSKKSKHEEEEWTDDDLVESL
T1 sequence (P51948 whole entry partner): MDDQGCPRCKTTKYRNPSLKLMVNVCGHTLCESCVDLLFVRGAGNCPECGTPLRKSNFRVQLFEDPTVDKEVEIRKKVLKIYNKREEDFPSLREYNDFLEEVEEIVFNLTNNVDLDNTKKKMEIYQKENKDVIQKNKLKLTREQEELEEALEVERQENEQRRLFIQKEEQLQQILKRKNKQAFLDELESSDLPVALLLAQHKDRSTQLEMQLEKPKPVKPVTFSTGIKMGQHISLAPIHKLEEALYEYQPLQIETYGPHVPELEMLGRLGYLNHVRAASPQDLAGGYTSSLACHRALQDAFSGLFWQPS
Method: Assay Buffer: 50 mM HEPES, 3 mM MgCl2, 3 mM MnCl2, 1 mM DTT, 3 μM Na3VO4, pH 7.5
Substrate RB: CTF Peptide (ProQinase #: 0040-0000-6)
ADP-Glo™ Assay (Promega #: V9101): ATP: 10 mM, ADP-Glo™ Reagent, Kinase Detection Reagent
384-well white assay plates
A ten point serial dilution of compound was prepared at 5× concentration in assay buffer with the final assay concentrations starting at 30 μM, 10 μM, 3 μM, 1 μM . . . 0 μM. Enzyme, substrate, and ATP were used at 40 ng, 200 ng (or 400 ng)^+ and 1 μM, respectively. The assay plate was set up by mixing the components in a total reaction volume of 10 μL per well. The plate was centrifuged gently for 10 seconds and incubated at room temperature (RT) for 60 minutes in the dark. The ADP-Glo Reagent and kinase detection reagent were added and incubated as recommended. The reaction was quantified by measuring luminescence on the Perkin Elmer Envision plate reader. Data was analyzed using Graphpad Prism 7 software. *With CDK2 enzyme, 400 ng of substrate was used.

Compound | IC50
Fc1cccc(Nc2cc(OC[C@H]3CCCNC3)nc3c(C4CC4)cnn23)c1 [Compound I-14] | 100 to 1000 nM
N#Cc1cccc(Nc2cc(NC[C@@H]3CCNC[C@H]3O)nc3c(C4CC4)cnn23)c1 [Compound I-15, (3S,4S)-3-((3-cyclopropyl-5-(((3-hydroxy)piperidin-4-yl)methylamino)pyrazolo[1,5-a]pyrimidin-7-yl)amino)benzonitrile] | 100 to 1000 nM
Fc1cccc(Nc2cc(O[C@H]3CCCNC3)nc3c(C4CC4)cnn23)c1 [Compound I-4, (S)-3-cyclopropyl-N-(3-fluorophenyl)-5-((piperidin-3-yl)oxy)pyrazolo[1,5-a]pyrimidin-7-amine] | < 100 nM
N#Cc1cccc(Nc2cc(NC[C@H]3CCNC[C@@H]3O)nc3c(C4CC4)cnn23)c1 [Compound I-48, (3R,4R)-3-(((3-cyclopropyl-5-(3-hydroxypiperidin-4-yl)methylamino)pyrazolo[1,5-a]pyrimidin-7-yl)amino)benzonitrile] | < 100 nM
CS(=O)(=O)c1cccc(Nc2cc(NC[C@H]3CCNC[C@@H]3O)nc3c(C4CC4)cnn23)c1 [Compound I-51, (3R,4R)-((3-cyclopropyl-7-((3-methylsulfonylphenyl)amino)pyrazolo[1,5-a]pyrimidin-5-yl)aminomethyl)piperidin-3-ol] | < 100 nM
Cc1cc(F)cc(Nc2cc(NC[C@H]3CCNC[C@@H]3O)nc3c(C4CC4)cnn23)c1 [Compound I-49, (3R,4R)-4-((3-cyclopropyl-7-((3-fluoro-5-methylphenyl)amino)pyrazolo [1,5-a]pyrimidin-5-yl)aminomethyl)piperidin-3-ol] | < 100 nM
Cc1cc(F)cc(Nc2cc(NC[C@H]3CCNC[C@@H]3O)nc3c(C4CCC4)cnn23)c1 [Compound I-52, (3R,4R)-((3-cyclobutyl-7-((3-fluoro-5-methylphenyl)amino)pyrazolo [1,5-a]pyrimidin-5-yl)aminomethyl)piperidin-3-ol] | < 100 nM
N[C@H]1CC[C@@H](Nc2cc(Nc3cccc(F)c3)n3ncc(C4CC4)c3n2)CC1 [Compound I-7, Cis-N^5-(4-aminocyclohexyl)-3-cyclopropyl-N^7-(3-fluorophenyl)pyrazolo[1,5-a]pyrimidine-5,7-diamine] | 100 to 1000 nM
N#Cc1cnn2c(NCc3cccc(F)c3)cc(N[C@H]3CCCNC3)nc12 [Compound I-29, (S)-7-((3-fluorobenzyl)amino)-5-((piperidin-3-yl)amino)pyrazolo[1,5-a]pyrimidine-3-carbonitrile] | 100 to 1000 nM
O[C@@H]1CNCC[C@@H]1CNc1cc(Nc2cccc(F)c2)n2ncc(C3CC3)c2n1 [Compound I-12, (3S,4R)-4-((3-cyclopropyl-7-((3-fluorophenyl)amino)pyrazolo [1,5-a]pyrimidin-5-yl)aminomethyl)piperidin-3-ol] | 100 to 1000 nM
O[C@H]1CNCC[C@@H]1CNc1cc(Nc2cccc(F)c2)n2ncc(C3CCC3)c2n1 [Compound I-50] | < 100 nM
N#Cc1cc(F)cc(Nc2cc(NC[C@@H]3CCNC[C@H]3O)nc3c(C4CC4)cnn23)c1 [Compound I-16, (3S,4S)-3-((3-cyclopropyl-5-(((3-hydroxy)piperidin-4-yl)methylamino)pyrazolo[1,5-a]pyrimidin-7-yl)amino)-5-fluorobenzonitrile trifluoroacetate salt] | > 1000 nM
N#Cc1cccc(Nc2cc(N[C@H]3CCCNC3)nc3c(C4CC4)cnn23)c1 [Compound I-9, (S)-3-((3-cyclopropyl-5-((piperidin-3-yl)amino)pyrazolo[1,5-a]pyrimidin-7-yl)amino)benzonitrile] | < 100 nM
O[C@@H]1CNCC[C@H]1CNc1cc(Nc2cccc(F)c2)n2ncc(C3CC3)c2n1 [Compound I-11, (3S,4S)-4-(((3-cyclopropyl-7-((3-fluorophenyl)amino)pyrazolo [1,5-a]pyrimidin-5-yl)amino)methyl)piperidin-3-ol] | < 100 nM
O[C@H]1CCNC[C@@H]1Nc1cc(Nc2cccc(F)c2)n2ncc(C3CC3)c2n1 [Compound I-21, (3S,4S)-3-((3-cyclopropyl-7-((3-fluorophenyl)amino)pyrazolo [1,5-a]pyrimidin-5-yl)amino)piperidin-4-ol hydrochloride] | > 1000 nM
Fc1cccc(Nc2cc(NC[C@H]3CCCNC3)nc3c(C4CC4)cnn23)c1 [Compound I-13] | > 1000 nM
O[C@@H]1CNC[C@@H](Nc2cc(Nc3cccc(F)c3)n3ncc(C4CC4)c3n2)C1 [Compound I-22, hydrochloride] | > 1000 nM
O[C@@H]1CNCC[C@H]1CNc1cc(Nc2cccc(F)c2)n2ncc(C3CC3)c2n1 [Compound I-17] | 100 to 1000 nM
N#Cc1cc(F)cc(Nc2cc(NC[C@H]3CCNC[C@@H]3O)nc3c(C4CCC4)cnn23)c1 [Compound I-55, (3R,4R)-3-((3-cyclobutyl-5-((3-hydroxypiperidin-4-yl)methylamino)pyrazolo[1,5-a]pyrimidin-7-yl)amino)-5-fluorobenzonitrile] | < 100 nM

Next, values leading:

IC50 | Compound
100 to 1000 nM | Cc1cc(F)cc(Nc2cc(N[C@@H]3CNC[C@@H](O)C3)nc3c(C4CCC4)cnn23)c1 [Compound I-56, (3S,5S)-5-((3-cyclobutyl-7-((3-fluoro-5-methylphenyl)amino)pyrazolo [1,5-a]pyrimidin-5-yl)amino)piperidin-3-ol]
< 100 nM | Cc1cc(F)cc(Nc2cc(O[C@H]3CCCNC3)nc3c(C4CCC4)cnn23)c1 [Compound I-58, (S)-3-cyclobutyl-N-(3-fluoro-5-methylphenyl)-5-((piperidin-3-yl)oxy)pyrazolo[1,5-a]pyrimidin-7-amine]
100 to 1000 nM | Cc1cc(Nc2cc(N[C@H]3CCCNC3)nc3c(C4CC4)cnn23)cc(C(F)(F)F)c1 [Compound I-62, (S)-3-cyclopropyl-N^7-(5-methyl-3-trifluoromethylphenyl)-N^5-(piperidin-3-yl)pyrazolo[1,5-a]pyrimidine-5,7-diamine]
< 100 nM | Fc1cc(Nc2cc(O[C@H]3CCCNC3)nc3c(C4CCC4)cnn23)cc(C(F)(F)F)c1 [Compound I-65, (S)-3-cyclobutyl-N-(5-fluoro-3-trifluoromethylphenyl)-5-((piperidin-3-yl)oxy)pyrazolo[1,5-a]pyrimidin-7-amine]
< 100 nM | Cc1cc(Nc2cc(N[C@H]3CCCNC3)nc3c(C4CCC4)cnn23)cc(C(F)(F)F)c1 [Compound I-63, (S)-3-cyclobutyl-N^7-(5-methyl-3-trifluoromethylphenyl)-N^5-(piperidin-3-yl)pyrazolo[1,5-a]pyrimidine-5,7-diamine]
100 to 1000 nM | Cc1cc(C#N)cc(Nc2cc(N[C@H]3CCCNC3)nc3c(C4CC4)cnn23)c1 [Compound I-67, (S)-3-((3-cyclopropyl-5-((piperidin-3-yl)amino)pyrazolo[1,5-a]pyrimidin-7-yl)amino)-5-methylbenzonitrile]
< 100 nM | Cc1cc(F)cc(Nc2cc(O[C@@H]3CNC[C@@H](O)C3)nc3c(C4CCC4)cnn23)c1 (relative stereo) [Compound I-57, trans-5-((3-cyclobutyl-7-((3-fluoro-5-methylphenyl)amino)pyrazolo [1,5-a]pyrimidin-5-yl)oxy)piperidin-3-ol]
< 100 nM | Cc1cc(C#N)cc(Nc2cc(O[C@H]3CCCNC3)nc3c(C4CC4)cnn23)c1 [Compound I-69, (S)-3-((3-cyclopropyl-5-((piperidin-3-yl)oxy)pyrazolo [1,5-a]pyrimidin-7-yl)amino)-5-methylbenzonitrile]
< 100 nM | Cc1cc(C#N)cc(Nc2cc(N[C@H]3CCCNC3)nc3c(C4CCC4)cnn23)c1 [Compound I-68, (S)-3-((3-cyclobutyl-5-((piperidin-3-yl)amino)pyrazolo[1,5-a]pyrimidin-7-yl)amino)-5-methylbenzonitrile]
< 100 nM | Cc1cc(Nc2cc(O[C@H]3CCCNC3)nc3c(C4CCC4)cnn23)cc(C(F)(F)F)c1 [Compound I-66, (S)-3-cyclobutyl-N-(5-methyl-3-trifluoromethylphenyl)-5-((piperidin-3-yl)oxy)pyrazolo[1,5-a]pyrimidin-7-amine]
100 to 1000 nM | Cc1cc(Nc2cc(O[C@H]3CCCNC3)nc3c(C4CC4)cnn23)cc(C(F)(F)F)c1 [Compound I-61, (S)-3-cyclopropyl-N-(5-methyl-3-trifluoromethylphenyl)-5-((piperidin-3-yl)oxy)pyrazolo[1,5-a]pyrimidin-7-amine]
> 1000 nM | Cc1cc(F)cc(Nc2cc(NC[C@H]3CCCNC3)nc3c(C4CCC4)cnn23)c1 [Compound I-59, (S)-3-cyclobutyl-N^7-(3-fluoro-5-methylphenyl)-N^5-((piperidin-3-yl)methyl)pyrazolo[1,5-a]pyrimidine-5,7-diamine]
100 to 1000 nM | Fc1cc(Nc2cc(O[C@H]3CCCNC3)nc3c(C4CC4)cnn23)cc(C(F)(F)F)c1 [Compound I-64, (S)-3-cyclopropyl-N-(5-fluoro-3-trifluoromethylphenyl)-5-((piperidin-3-yl)oxy)pyrazolo[1,5-a]pyrimidin-7-amine]
> 1000 nM | N#Cc1cc(F)cc(Nc2cc(OC[C@H]3CCCNC3)nc3c(C4CCC4)cnn23)c1 [Compound I-60, (S)-3-((3-cyclobutyl-5-((piperidin-3-yl)methoxy)pyrazolo[1,5-a]pyrimidin-7-yl)amino)-5-fluorobenzonitrile]
< 100 nM | Cc1cc(C#N)cc(Nc2cc(O[C@H]3CCCNC3)nc3c(C4CCC4)cnn23)c1 [Compound I-70, (S)-3-((3-cyclobutyl-5-((piperidin-3-yl)oxy)pyrazolo[1,5-a]pyrimidin-7-yl)amino)-5-methylbenzonitrile]
